Reference: patent publication US20050171037A1, “Therapeutic combinations” (Agouron Pharmaceuticals, Inc., priority 2004, published 2005)
Where two headings read alike, the source gives them in different places.

Assays:
[1] = Compound B pharmacokinetics after oral administration of a single dose alone (fasting) and with ritonavir (fed), human subjects; assay type: in vivo; details: for half-life / Cmax / AUC / Tmax: plasma; for half-life / Ae % (drug recovered unchanged in urine, percent of administered dose): arithmetic mean; for half-life: read-out: t1/2 (terminal phase plasma half-life) (converted); for AUC: read-out: AUC (area under the concentration-time curve from time 0 to infinity); for Tmax: median
Protocol: Nos. 11/008325, filed Dec. 8, 2004, and 60/591,351, filed Jul. 26, 2004, all of which are hereby incorporated by reference for this purpose. A total of 21 human subjects were administered a single 300 mg, 900 mg, 1800 mg, or 3600 mg dose of a spray-dried composition comprising 90 wt % amorphous Compound B and 10 wt % hydroxypropyl methyl cellulose acetate succinate (HPMCAS) under fasting conditions. […] Each plasma sample was analyzed for the presence of Compound B and the following pharmacokinetic parameters for Compound B were determined for each subject: area under the concentration-time curve from time 0 extrapolated to infinity (AUC), maximum observed plasma concentration (Cmax), time to first occurrence of Cmax (Tmax), terminal phase plasma half-life (t %), CL/F=apparent oral clearance, and cumulative amount of drug recovered unchanged in the urine expressed as a percentage of administered dose (Ae %).

[2] = as above; assay type: in vivo; details: geometric mean
[3] = po, 300 mg, single oral dose 300 mg (active dose 270 mg), alone, fasting
[4] = po, 300 mg, single oral dose 300 mg (active dose 270 mg), alone, fasting, geometric mean
[5] = po, 900 mg, single oral dose 900 mg (active dose 810 mg), alone, fasting
[6] = po, 900 mg, single oral dose 900 mg (active dose 810 mg), alone, fasting, geometric mean
[7] = po, 1800 mg, single oral dose 1800 mg (active dose 1620 mg), alone, fasting
[8] = po, 1800 mg, single oral dose 1800 mg (active dose 1620 mg), alone, fasting, geometric mean
[9] = po, 3600 mg, single oral dose 3600 mg (active dose 3240 mg), alone, fasting
[10] = po, 3600 mg, single oral dose 3600 mg (active dose 3240 mg), alone, fasting, geometric mean
[11] = po, single oral dose 300 mg (active 270 mg) + ritonavir (100 mg every 12 hours for 3 doses), fed
[12] = po, single oral dose 450 mg (active 405 mg) + ritonavir (100 mg every 12 hours for 3 doses), fed

**Q.** For Cc1c(O)cccc1C(=O)N[C@@H](Cc1ccccc1)[C@H](O)C(=O)N1CC(F)(F)C(C)(C)[C@H]1C(=O)NCC(F)(F)F [Compound B, 4,4-difluoro-1-{(2S,3S)-2-hydroxy-3-[(3-hydroxy-2-methylbenzoyl)amino]-4-phenylbutanoyl}-3,3-dimethyl-N-(2,2,2-trifluoroethyl)-L-prolinamide], which half-life [1, 3] is on record?
**A.** The half-life was 2.76 h.

**Q.** And the Cmax [1, 4]?
**A.** Its Cmax is 1530 ng/mL.

**Q.** What about the AUC [1, 4] of the same compound?
**A.** Its AUC is 6110 ng·h/mL.

**Q.** What about the Tmax [1, 3] of the same compound?
**A.** Its Tmax is 0.5 h.

**Q.** And the half-life [1, 5]?
**A.** The half-life was 3.25 h.

**Q.** What about the Cmax [1, 6] of the same compound?
**A.** The Cmax was 4610 ng/mL.

**Q.** What about the AUC [1, 6] of the same compound?
**A.** The AUC was 28200 ng·h/mL.

**Q.** What about the Tmax [1, 5] of the same compound?
**A.** Its Tmax is 2 h.

**Q.** And the half-life [1, 7]?
**A.** Its half-life is 3.6 h.

**Q.** And the Cmax [1, 8]?
**A.** Its Cmax is 8670 ng/mL.

**Q.** And the AUC [1, 8]?
**A.** The AUC was 74500 ng·h/mL.

**Q.** And the Tmax [1, 7]?
**A.** Its Tmax is 3.02 h.

**Q.** What about the half-life [1, 9] of the same compound?
**A.** The half-life was 4.15 h.

**Q.** What about the Cmax [1, 10] of the same compound?
**A.** The Cmax was 14500 ng/mL.

**Q.** What about the AUC [1, 10] of the same compound?
**A.** Its AUC is 164000 ng·h/mL.

**Q.** What about the Tmax [1, 9] of the same compound?
**A.** Its Tmax is 4 h.

**Q.** And the half-life [1, 11]?
**A.** The half-life was 8.54 h.

**Q.** And the Tmax [1, 11]?
**A.** The Tmax was 4 h.

**Q.** What about the half-life [1, 12] of the same compound?
**A.** The half-life was 10.3 h.

**Q.** What about the Cmax ([1]; po, single oral dose 450 mg (active 405 mg) + ritonavir (100 mg every 12 hours for 3 doses), fed, geometric mean) of the same compound?
**A.** Its Cmax is 3830 ng/mL.

**Q.** And the Tmax [1, 12]?
**A.** Its Tmax is 4.02 h.

**Q.** And the AUC ([1]; single oral dose 300 mg (active 270 mg) + ritonavir (100 mg every 12 hours for 3 doses), fed, geometric mean)?
**A.** Its AUC is 34800 ng·h/mL.

**Q.** And the “Ae % (drug recovered unchanged in urine, percent of administered dose)” value ([1]; single oral dose 300 mg (active 270 mg) + ritonavir (100 mg every 12 hours for 3 doses), fed)?
**A.** The value was 17.7%.

**Q.** What about the “Ae % (drug recovered unchanged in urine, percent of administered dose)” value ([1]; single oral dose 300 mg (active dose 270 mg), alone, fasting) of the same compound?
**A.** The value was 3.67%.

**Q.** And the “CL/F (apparent oral clearance)” value ([1]; single oral dose 300 mg (active dose 270 mg), alone, fasting, geometric mean)?
**A.** The value was 44.2 L/h.

**Q.** And the “Ae % (drug recovered unchanged in urine, percent of administered dose)” value ([1]; single oral dose 450 mg (active 405 mg) + ritonavir (100 mg every 12 hours for 3 doses), fed)?
**A.** The value was 17.6%.

**Q.** What about the “AUC (area under the concentration-time curve from time 0 to infinity)” value ([1]; single oral dose 450 mg (active 405 mg) + ritonavir (100 mg every 12 hours for 3 doses), fed, geometric mean) of the same compound?
**A.** The value was 51600 ng·h/mL.

**Q.** What about the “Ae % (drug recovered unchanged in urine, percent of administered dose)” value ([1]; single oral dose 900 mg (active dose 810 mg), alone, fasting) of the same compound?
**A.** The value was 4.89%.

**Q.** What about the “CL/F (apparent oral clearance)” value ([1]; single oral dose 900 mg (active dose 810 mg), alone, fasting, geometric mean) of the same compound?
**A.** The value was 28.7 L/h.

**Q.** What about the “Ae % (drug recovered unchanged in urine, percent of administered dose)” value ([1]; single oral dose 1800 mg (active dose 1620 mg), alone, fasting) of the same compound?
**A.** The value was 10.4%.

**Q.** And the “CL/F (apparent oral clearance)” value ([1]; single oral dose 1800 mg (active dose 1620 mg), alone, fasting, geometric mean)?
**A.** Its value is 21.7 L/h.

**Q.** And the “Ae % (drug recovered unchanged in urine, percent of administered dose)” value ([1]; single oral dose 3600 mg (active dose 3240 mg), alone, fasting)?
**A.** The value was 11.8%.

**Q.** What about the “CL/F (apparent oral clearance)” value ([1]; single oral dose 3600 mg (active dose 3240 mg), alone, fasting, geometric mean) of the same compound?
**A.** Its value is 19.7 L/h.

**Q.** And the Cmax ([2]; plasma, po, single oral dose 300 mg (active 270 mg) + ritonavir (100 mg every 12 hours for 3 doses))?
**A.** The Cmax was 3100 ng/mL.

**Q.** And the “CL/F (apparent oral clearance)” value ([2]; single oral dose 300 mg (active 270 mg) + ritonavir (100 mg every 12 hours for 3 doses))?
**A.** Its value is 7.75 L/h.

**Q.** What about the “CL/F (apparent oral clearance)” value ([2]; single oral dose 450 mg (active 405 mg) + ritonavir (100 mg every 12 hours for 3 doses)) of the same compound?
**A.** Its value is 7.84 L/h.
